Reference: patent US20230271954A1 (Gossamer Bio Services, Inc., priority 2020, published 2023)

Key:
DGKζ = biological target: T1, DGKζ (Homo sapiens, UniProt Q13574); assay: DGKζ biochemical assay (ADP-Glo); conditions: read-out: DGK ζ IC50
T1 construct: purchased Carna 12-110

DGKα = DGKα (Homo sapiens, UniProt P23743); assay: DGKα biochemical assay (ADP-Glo); conditions: read-out: DGK α IC50
Procedure, shortened: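 ADP-Glo kinase assay using OAG/PS (1:2) lipid substrate, sonicated, in HEPES pH 7.0 buffer with MgCl2, CaCl2, DTT, BSA, Triton X-100. Enzyme preincubated with compound 30 min at RT; substrate with ATP (DGKα: 400 μM) added, 45 min RT. Luminescence read; % inhibition vs DMSO and no-enzyme controls.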

DGKα, sequence (P23743 whole entry): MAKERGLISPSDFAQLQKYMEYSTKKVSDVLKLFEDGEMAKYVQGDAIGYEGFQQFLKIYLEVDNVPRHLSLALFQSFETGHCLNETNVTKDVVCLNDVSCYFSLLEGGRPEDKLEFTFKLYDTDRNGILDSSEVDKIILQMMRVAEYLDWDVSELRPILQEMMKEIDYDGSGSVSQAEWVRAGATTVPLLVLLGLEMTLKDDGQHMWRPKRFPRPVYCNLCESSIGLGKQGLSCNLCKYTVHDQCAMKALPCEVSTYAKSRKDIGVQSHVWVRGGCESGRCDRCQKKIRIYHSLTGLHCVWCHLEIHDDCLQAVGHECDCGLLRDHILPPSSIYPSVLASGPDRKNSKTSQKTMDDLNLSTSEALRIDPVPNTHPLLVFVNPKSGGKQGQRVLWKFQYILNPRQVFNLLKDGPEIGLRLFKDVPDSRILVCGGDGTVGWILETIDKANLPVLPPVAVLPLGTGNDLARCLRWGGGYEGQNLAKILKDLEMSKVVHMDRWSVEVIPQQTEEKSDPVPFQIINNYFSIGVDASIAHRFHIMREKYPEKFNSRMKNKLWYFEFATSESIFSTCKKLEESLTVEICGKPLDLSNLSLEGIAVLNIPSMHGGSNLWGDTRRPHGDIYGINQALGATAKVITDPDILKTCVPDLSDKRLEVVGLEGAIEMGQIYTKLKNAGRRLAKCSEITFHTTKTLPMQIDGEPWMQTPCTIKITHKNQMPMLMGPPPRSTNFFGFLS
T1 sequence (Q13574 1-929 isoform Q13574-4): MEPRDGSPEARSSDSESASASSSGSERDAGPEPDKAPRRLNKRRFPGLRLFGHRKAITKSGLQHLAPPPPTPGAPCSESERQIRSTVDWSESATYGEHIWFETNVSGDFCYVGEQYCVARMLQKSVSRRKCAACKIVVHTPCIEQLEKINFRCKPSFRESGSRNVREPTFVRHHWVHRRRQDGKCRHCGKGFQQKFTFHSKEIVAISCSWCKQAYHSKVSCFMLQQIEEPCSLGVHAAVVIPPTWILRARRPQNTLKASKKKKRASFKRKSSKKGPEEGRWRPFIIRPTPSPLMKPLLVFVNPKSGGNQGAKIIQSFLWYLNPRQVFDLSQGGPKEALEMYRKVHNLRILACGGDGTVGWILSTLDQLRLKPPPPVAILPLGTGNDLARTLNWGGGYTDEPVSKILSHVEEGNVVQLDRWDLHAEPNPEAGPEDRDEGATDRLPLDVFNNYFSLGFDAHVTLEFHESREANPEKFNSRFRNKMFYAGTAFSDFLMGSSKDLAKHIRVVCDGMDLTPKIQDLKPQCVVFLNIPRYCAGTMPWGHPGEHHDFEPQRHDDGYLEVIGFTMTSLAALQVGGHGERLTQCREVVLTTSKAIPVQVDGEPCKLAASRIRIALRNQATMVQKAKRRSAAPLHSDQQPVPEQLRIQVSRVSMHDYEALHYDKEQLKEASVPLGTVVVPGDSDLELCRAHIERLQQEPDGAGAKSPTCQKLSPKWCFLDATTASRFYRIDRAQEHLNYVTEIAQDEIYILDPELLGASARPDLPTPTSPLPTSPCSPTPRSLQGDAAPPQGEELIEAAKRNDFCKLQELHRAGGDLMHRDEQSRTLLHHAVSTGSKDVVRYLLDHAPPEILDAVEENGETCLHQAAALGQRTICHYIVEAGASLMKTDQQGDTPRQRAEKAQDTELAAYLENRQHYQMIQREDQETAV

| Compound | IC50 (DGKζ) [µM] | IC50 (DGKα) [µM] |
| --- | --- | --- |
| COc1cc(N(CC2CC2)[C@H]2CC[C@@H](N(C)c3c(C#N)c(=O)n(C)c4ccc(Cl)nc34)CC2)ccc1F [Example 32, cis-6-chloro-4-((4-((cyclopropylmethyl)(4-fluoro-3-methoxyphenyl)amino)cyclohexyl)(methyl)amino)-1-methyl-2-oxo-1,2-dihydro-1,5-naphthyridine-3-carbonitrile] | ≥ 1 | 0.01 to 0.1 |
| COc1cc(N(CC2CC2)[C@H]2CC[C@@H](N(C)c3c(C#N)c(=O)n(C)c4ccc(C#N)nc34)CC2)ccc1F [Example 33, cis-8-((4-((cyclopropylmethyl)(4-fluoro-3-methoxyphenyl)amino)cyclohexyl)(methyl)amino)-5-methyl-6-oxo-5,6-dihydro-1,5-naphthyridine-2,7-dicarbonitrile] | 0.1 to 1 | 0.1 to 1 |
| COc1cc(N(CC2CC2)[C@H]2CC[C@H](N(C)c3c(C#N)c(=O)n(C)c4ccc(C#N)nc34)CC2)ccc1F [Example 34, trans-8-((4-((cyclopropylmethyl)(4-fluoro-3-methoxyphenyl)amino)cyclohexyl)(methyl)amino)-5-methyl-6-oxo-5,6-dihydro-1,5-naphthyridine-2,7-dicarbonitrile] | ≥ 1 | 0.1 to 1 |
| Cn1c(=O)c(C#N)c(N(C)[C@H]2CC[C@@H](N(CC3CC3)c3ccc(Cl)cc3)CC2)c2nc(C#N)ccc21 [Example 35, cis-8-((4-((4-chlorophenyl)(cyclopropylmethyl)amino)cyclohexyl)(methyl)amino)-5-methyl-6-oxo-5,6-dihydro-1,5-naphthyridine-2,7-dicarbonitrile] | ≥ 1 | < 0.01 |
| COc1cc(N(CC2CC2)[C@H]2CC[C@H](N(C)c3cc(=O)n(C)c4ccc(C#N)nc34)CC2)ccc1F [Example 36, trans-8-((4-((cyclopropylmethyl)(4-fluoro-3-methoxyphenyl)amino)cyclohexyl)(methyl)amino)-5-methyl-6-oxo-5,6-dihydro-1,5-naphthyridine-2-carbonitrile] | ≥ 1 | ≥ 1 |
| COc1cc(F)ccc1N(C1CC1)[C@H]1CC[C@H](N(C)c2c(C#N)c(=O)n(C)c3ccc(C#N)nc23)CC1 [Example 37, trans-8-((4-(cyclopropyl(4-fluoro-2-methoxyphenyl)amino)cyclohexyl)(methyl)amino)-5-methyl-6-oxo-5,6-dihydro-1,5-naphthyridine-2,7-dicarbonitrile] | 0.1 to 1 | ≥ 1 |
| COc1cc(N(CC2CC2)[C@H]2CC[C@@H](N(C)c3cc(=O)n(C)c4ccc(C#N)nc34)CC2)ccc1F [Example 38, cis-8-((4-((cyclopropylmethyl)(4-fluoro-3-methoxyphenyl)amino)cyclohexyl)(methyl)amino)-5-methyl-6-oxo-5,6-dihydro-1,5-naphthyridine-2-carbonitrile] | 0.1 to 1 | 0.1 to 1 |
| COc1cc(N(CC2CC2)[C@H]2CC[C@H](N(C)c3c(C#N)c(=O)n(C)c4ccc(Cl)nc34)CC2)ccc1F [Example 39, trans-6-chloro-4-((4-((cyclopropylmethyl)(4-fluoro-3-methoxyphenyl)amino)cyclohexyl)(methyl)amino)-1-methyl-2-oxo-1,2-dihydro-1,5-naphthyridine-3-carbonitrile] | 0.1 to 1 | 0.01 to 0.1 |
| COc1cc(F)ccc1N(C)[C@H]1CC[C@H](N(C)c2c(C#N)c(=O)n(C)c3ccc(Cl)nc23)CC1 [Example 40, trans-6-chloro-4-((4-((4-fluoro-2-methoxyphenyl) (methyl)amino)cyclohexyl)(methyl)amino)-1-methyl-2-oxo-1,2-dihydro-1,5-naphthyridine-3-carbonitrile] | ≥ 1 | 0.01 to 0.1 |
| CC(C)CN(c1ccc(F)cc1)[C@H]1CC[C@H](N(C)c2cc(=O)n(C)c3ccc(C#N)nc23)CC1 [Example 41, trans-8-((-4-((4-fluorophenyl)(isobutyl)amino)cyclohexyl)(methyl)amino)-5-methyl-6-oxo-5,6-dihydro-1,5-naphthyridine-2-carbonitrile] | ≥ 1 | ≥ 1 |
| Cn1c(=O)c(C#N)c(N(C)[C@H]2CC[C@@H](N(CC3CCC3)c3ccc(F)cc3)CC2)c2nc(C#N)ccc21 [Example 42, cis-8-((-4-((cyclobutylmethyl)(4-fluorophenyl)amino)cyclohexyl)(methyl)amino)-5-methyl-6-oxo-5,6-dihydro-1,5-naphthyridine-2,7-dicarbonitrile] | 0.1 to 1 | < 0.01 |
| Cn1c(=O)cc(N(C)[C@H]2CC[C@@H](N(CC3CCC3)c3ccc(F)cc3)CC2)c2nc(C#N)ccc21 [Example 43, cis-8-((-4-((cyclobutylmethyl)(4-fluorophenyl)amino)cyclohexyl)(methyl)amino)-5-methyl-6-oxo-5,6-dihydro-1,5-naphthyridine-2-carbonitrile] | 0.1 to 1 | < 0.01 |
| Cn1c(=O)cc(N(C)[C@H]2CC[C@H](N(CC3CCC3)c3ccc(F)cc3)CC2)c2nc(C#N)ccc21 [Example 44, trans-8-((-4-((cyclobutylmethyl)(4-fluorophenyl)amino)cyclohexyl)(methyl)amino)-5-methyl-6-oxo-5,6-dihydro-1,5-naphthyridine-2-carbonitrile] | ≥ 1 | 0.1 to 1 |
| COc1cc(F)ccc1N(C)[C@H]1CC[C@@H](N(C)c2c(C#N)c(=O)n(C)c3ccc(Cl)nc23)CC1 [Example 45, cis-6-chloro-4-((4-((4-fluoro-2-methoxyphenyl) (methyl)amino)cyclohexyl)(methyl)amino)-1-methyl-2-oxo-1,2-dihydro-1,5-naphthyridine-3-carbonitrile] | 0.1 to 1 | 0.01 to 0.1 |
| COc1cc(F)ccc1N(C)[C@H]1CC[C@H](N(C)c2c(C#N)c(=O)n(C)c3ccc(C#N)nc23)CC1 [Example 46, trans-8-((4-((4-fluoro-2-methoxyphenyl)(methyl)amino)cyclohexyl)(methyl)amino)-5-methyl-6-oxo-5,6-dihydro-1,5-naphthyridine-2,7-dicarbonitrile] | 0.01 to 0.1 | 0.1 to 1 |
| CC(C)CN(c1ccc(F)cc1)[C@H]1CC[C@@H](N(C)c2cc(=O)n(C)c3ccc(C#N)nc23)CC1 [Example 47, cis-8-((-4-((4-fluorophenyl)(isobutyl)amino)cyclohexyl)(methyl)amino)-5-methyl-6-oxo-5,6-dihydro-1,5-naphthyridine-2-carbonitrile] | ≥ 1 | 0.01 to 0.1 |
| CC(C)CN(c1ccc(F)cc1)[C@H]1CC[C@@H](N(C)c2c(C#N)c(=O)n(C)c3ccc(Cl)nc23)CC1 [Example 48, cis-6-chloro-4-((-4-((4-fluorophenyl)(isobutyl)amino)cyclohexyl)(methyl)amino)-1-methyl-2-oxo-1,2-dihydro-1,5-naphthyridine-3-carbonitrile] | ≥ 1 | 0.1 to 1 |
| Cn1c(=O)cc(N(C)[C@H]2CC[C@@H](N(c3ccc(F)cc3)C3CC3)CC2)c2nc(C#N)ccc21 [Example 49, cis-8-((4-(cyclopropyl(4-fluorophenyl)amino)cyclohexyl)(methyl)amino)-5-methyl-6-oxo-5,6-dihydro-1,5-naphthyridine-2-carbonitrile] | 0.1 to 1 | < 0.01 |
